Measurements published in paper PMC6588243, “Fate of ptaquiloside—A bracken fern toxin—In cattle” (PLoS ONE, 2019).
Values joined by “and” are separate entries in the source; they are usually repeats but may differ in a detail not shown here. Identical values can stand only once. “Also recorded” adds a separate entry of the source.

Key:
[1] = Urinary recovery of PTA and PTB after intravenous administration of PTA; format: in vivo, Jersey heifers; conditions: twelve hours after iv administration of PTA
Experimental: Intravenous administration of PTA. In Experiment 1 the dose of purified PTA (0.21 mg kg^-1 body weight (b.w.) / 0.527 μmoles kg^-1) was dissolved in 10 mL of sterile water in a brown glass vial 1 hour before administration and protected from light. The solution was injected through a catheter (Cavafix Certo: 45 cm, 16 G; B. Braun Melsungen AG, Melsungen, Germany) placed in the right jugular vein. Blood samples were collected through another catheter placed in the left jugular vein. Blood samples were collected in heparinized glass tubes before and at predetermined times (10, 20, 30, 45 min and 1, 2, 4, 6, 8, 12, 21 and 24 hours) after PTA administration. The blood was centrifuged for 15 min at 3000 g to separate plasma which then was stored immediately at -18°C until assayed within a week following the method of Aranha et al.. Urine was collected quantitatively in urinary bags (Ratiomed GmBH, München, Germany) through a Foley catheter (Rusch Silasil no 16; Teleflex, Milan, Italy) inserted into the bladder. […]
PTA and PTB were analysed by LC-MS after purification using solid phase extraction (SPE) columns as reported in Aranha et al.. The limit of quantification of PTA and PTB in plasma was 3.0 x 10^−3 μM and 9.30 x 10^−3 μM, respectively. Limit of quantifications in diluted urine was 13 x 10^−3 μM for PTA and 8.28 x 10^−3μM for PTB.

[2] = Incubation of bracken extract in rumen liquid, in vitro; format: in vitro ADME, Jersey cows; conditions: for PTB concentration in rumen liquid: initial PTA 17 μM
Experimental: Samples of rumen contents were collected from two rumen fistulated Jersey cows. The cows were fed daily with 6 kg of complete feedingstuff (Danish Ragna Grønmix; Danish Agro, Karise, Denmark) and 2 kg of hay. Barley straw and water were provided ad libitum. The rumen liquid fraction was obtained by passing the digest through a 250 μm nylon filter. From each cow, 150 mL rumen liquid was pre-incubated at 37°C under CO2 atmosphere for 10 min before 5 mL of bracken extract was added in order to obtain an initial PTA concentration of 17 μM. PTA stability was assessed by removal of 2.5 mL sample for PTA determination after incubation for 0, 5, 15, 30, 60 and 120 min at 37 °C. The sample was immediately centrifuged for 3 min at 8,500 g and analysed following the method of Aranha et al.. The pH in rumen liquid was determined at the beginning and termination of the experiment.
Rumen liquid samples were cleaned on HLB cartridges and processed as plasma samples. PTA and PTB calibration curves were prepared in ruminal fluid deactivated by boiling for 5 minutes. The recovery of PTA and PTB in ruminal fluid was 74% (± 0.5%) and 80% (± 1.2%), respectively.

[3] = One-week repeated dose trial with dried bracken, plasma toxicokinetics; format: in vivo, Jersey heifers; conditions: for AUC0-∞ / MTT: PTB in plasma, daily PTA dose 2 mg kg^-1
Excerpt: The two heifers used for the single dose trials were also used for the one week repeated dose study together with an additional two Jersey heifers (no’s 1550 and 1567; Harald Hansen Eftf. I/S, Slangerup, Denmark) weighing 163 to 237 kg. The additional two heifers had never been exposed to PTA or to bracken fern. A wash-out period of 20 days between the last single-dose experiment and the one week repeated dose trial was established for heifers no’s 4848 and 4849.
All four heifers were fed dried bracken powder (top-dressed and molasses added). twice a day during a period of 7 days providing a daily PTA dose of 2 mg kg^-1 (5 μmoles kg^-1). On Day 8, the heifers no 4848 and no 1567 were additionally fed in the morning and euthanized 1 hour after using a captive bolt pistol and exsanguination. The two other heifers (no 4849 and no 1550) were euthanized 15 h after the last dose on Day 7 (Fig 2).
Blank blood samples were collected before the first dose was given. On Day 1 and Day 7 blood samples were collected after the morning dose at predetermined time points between 1 and 6 h after dosing (1, 2, 3, 5 and 6 hours). On Day 2 to Day 6 blood samples were collected daily 1 hour after 50% or more of the morning feed had been ingested, since the bracken fern was not eaten instantly. On Day 8 blood samples were collected just before euthanasia. Blood samples were processed and stored as described above.
Concentrations of PTA in plasma of individual animals were evaluated by non-compartmental analysis. Toxicokinetic variables were calculated using standard kinetic equations. The area under the curve (AUC) and the area under the first moment curve (AUMC) were determined using combined linear and natural logarithm trapezoidal rules. The terminal elimination rate was determined using the last three data points of the curve.

[4] = Day 1, heifer 1550, dried bracken twice a day
[5] = Day 1, heifer 1567, dried bracken twice a day
[6] = Day 1, heifer 4848, dried bracken twice a day
[7] = Day 1, heifer 4849, dried bracken twice a day
[8] = Day 7, heifer 1550, dried bracken twice a day
[9] = Day 7, heifer 1567, dried bracken twice a day
[10] = Day 7, heifer 4848, dried bracken twice a day
[11] = Day 7, heifer 4849, dried bracken twice a day

CC1=C[C@]2(O[C@@H]3O[C@H](CO)[C@@H](O)[C@H](O)[C@H]3O)C[C@@H](C)C(=O)[C@@H]2[C@](C)(O)C12CC2 [PTA, (2'R,3a'R,4'S,7a'R)-4'-Hydroxy-2',4',6'-trimethyl-3'-oxo-2',3',3a',4'-tetrahydrospiro[cyclopropane-1,5'-inden]-7a'(1'H)-yl β-D-glucopyranoside]
dose recovered in urine as PTA [1]: 30%
stability of PTA in fresh rumen fluid (in words) ([2]; fresh rumen fluid, 37 °C, pH 6.6): detectable in rumen fluid from cow no 1 only immediately after start; also recorded: lost within few minutes
time during which PTA was observed in rumen liquid ([2]; fresh rumen liquid, 17 μM, 37 °C): ≤ 5 min
PTA in plasma after repeated oral administration ([3]; dried bracken, 7 days): not detected

Cc1cc2c(c(C)c1CCO)C(=O)[C@H](C)C2 [PTB, pterosin B]
dose recovered in urine as PTB [1]: 12%
PTB as share of the added PTA ([2]; 5 min after the start of incubation): 10%
PTB concentration in rumen liquid ([2]; after 120 min, 37 °C): 2.7 µM
PTB as share of the added PTA ([2]; final sampling (120 min)): 16%
PTB concentration in rumen liquid ([2]; starting time, rumen liquid of two cows, 37 °C): 1.35 µM and 1.62 µM
AUC0-∞ ([3]; Day 1, average of four heifers): 0.774 µM·h
MTT ([3]; Day 1, average of four heifers): 3.8 h
AUC0-∞ [3, 4]: 0.386 µM·h
MTT [3, 4]: 2.3 h
AUC0-∞ [3, 5]: 1.248 µM·h
MTT [3, 5]: 4.4 h
AUC0-∞ [3, 6]: 0.873 µM·h
MTT [3, 6]: 4.6 h
AUC0-∞ [3, 7]: 0.591 µM·h
MTT [3, 7]: 3.9 h
AUC0-∞ ([3]; Day 7, average of four heifers): 0.849 µM·h
MTT ([3]; Day 7, average of four heifers): 3.4 h
AUC0-∞ [3, 8]: 0.606 µM·h
MTT [3, 8]: 3.2 h
AUC0-∞ [3, 9]: 1.264 µM·h
MTT [3, 9]: 3.6 h
AUC0-∞ [3, 10]: 0.968 µM·h
MTT [3, 10]: 3.9 h
AUC0-∞ [3, 11]: 0.558 µM·h
MTT [3, 11]: 3.0 h
transient peak of PTB in plasma as share of the PTA dose ([3]; after the morning dose): 10%
accumulation of PTB in the organism ([3]; mean AUC0-∞ Day 1 vs Day 7): not accumulated
